Article PMC9177618 (Structure (London, England : 1993), 2022)
Counter-ions that a name gives are not always drawn.

Columns and labels:
Dnmt1 = details: murine pre-implantation Dnmt3a/3b knockout embryos; ref Haggerty et al., 2021; cited from earlier work
[1] = test system: mouse embryonic stem cells; details: ref Portilho et al., 2021; cited from earlier work
full-length DNMT1 = full-length DNMT1 (Homo sapiens, UniProt P26358); assay: radioactive scintillation proximity assay; format: biochemical
Sequence of full-length DNMT1 (P26358 whole entry): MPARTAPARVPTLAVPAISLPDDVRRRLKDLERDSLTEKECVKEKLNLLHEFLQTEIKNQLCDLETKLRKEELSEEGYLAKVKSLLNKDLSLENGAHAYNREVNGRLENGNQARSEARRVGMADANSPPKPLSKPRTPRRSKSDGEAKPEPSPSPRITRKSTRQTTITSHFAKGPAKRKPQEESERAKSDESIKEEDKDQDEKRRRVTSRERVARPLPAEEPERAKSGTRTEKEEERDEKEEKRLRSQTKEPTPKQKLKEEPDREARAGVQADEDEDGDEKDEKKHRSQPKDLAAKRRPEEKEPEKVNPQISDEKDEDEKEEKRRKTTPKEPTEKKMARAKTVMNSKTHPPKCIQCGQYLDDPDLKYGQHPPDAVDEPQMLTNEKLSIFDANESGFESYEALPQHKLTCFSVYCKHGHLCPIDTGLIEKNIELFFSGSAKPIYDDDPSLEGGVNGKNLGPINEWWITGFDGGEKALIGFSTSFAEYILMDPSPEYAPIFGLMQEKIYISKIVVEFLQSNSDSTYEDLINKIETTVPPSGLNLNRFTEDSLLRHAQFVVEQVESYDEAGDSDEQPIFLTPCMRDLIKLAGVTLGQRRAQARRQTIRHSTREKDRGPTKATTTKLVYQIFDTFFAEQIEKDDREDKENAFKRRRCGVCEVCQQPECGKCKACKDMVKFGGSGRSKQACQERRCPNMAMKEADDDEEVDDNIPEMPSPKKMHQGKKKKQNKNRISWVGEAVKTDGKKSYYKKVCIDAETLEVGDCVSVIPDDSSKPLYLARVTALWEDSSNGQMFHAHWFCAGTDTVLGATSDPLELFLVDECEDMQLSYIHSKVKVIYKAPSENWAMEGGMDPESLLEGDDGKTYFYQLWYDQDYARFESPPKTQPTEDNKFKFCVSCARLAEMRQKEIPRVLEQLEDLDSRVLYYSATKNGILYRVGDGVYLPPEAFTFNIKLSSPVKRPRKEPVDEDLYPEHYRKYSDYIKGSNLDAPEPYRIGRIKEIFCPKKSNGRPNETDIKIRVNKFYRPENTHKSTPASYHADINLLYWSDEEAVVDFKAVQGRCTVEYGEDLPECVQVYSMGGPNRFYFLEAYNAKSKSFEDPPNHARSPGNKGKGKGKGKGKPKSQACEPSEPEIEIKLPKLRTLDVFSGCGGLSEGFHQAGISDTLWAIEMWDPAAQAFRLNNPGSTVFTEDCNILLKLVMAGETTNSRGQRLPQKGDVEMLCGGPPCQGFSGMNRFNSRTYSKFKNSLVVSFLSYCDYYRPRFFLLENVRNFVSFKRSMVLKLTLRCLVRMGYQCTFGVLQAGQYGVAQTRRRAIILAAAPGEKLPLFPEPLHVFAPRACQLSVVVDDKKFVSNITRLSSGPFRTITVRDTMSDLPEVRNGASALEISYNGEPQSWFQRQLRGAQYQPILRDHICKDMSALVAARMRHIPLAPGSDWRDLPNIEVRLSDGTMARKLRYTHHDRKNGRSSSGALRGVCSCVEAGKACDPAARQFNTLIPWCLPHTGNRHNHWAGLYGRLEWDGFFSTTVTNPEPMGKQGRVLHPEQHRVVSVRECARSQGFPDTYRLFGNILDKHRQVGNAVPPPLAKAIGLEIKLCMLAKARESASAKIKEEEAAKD

cancer cell = details: in vitro; ref Pappalardi et al., 2021; cited from earlier work
acute myeloid leukemia = details: mouse models of acute myeloid leukemia; ref Pappalardi et al., 2021; cited from earlier work
[2] = test system: more than 300 protein kinases and 30 other methyltransferases (MTases), including DNMT3a and 3b; details: ref Pappalardi et al., 2021; cited from earlier work

CCc1c(C#N)c(SC(C(N)=O)c2ccccc2)nc(N(C)C)c1C#N (stereo not shown) [GSK3484862]
inhibition of Dnmt1 (Dnmt1): inhibits Dnmt1
demethylation [1]: demethylation in mouse embryonic stem cells, in a level similar to that observed with Dnmt1 knockouts
non-specific toxicity [1]: minimal non-specific toxicity

CCc1c(C#N)c(SC(C(N)=O)c2ccccc2)nc(N2CCCN(CCO)CC2)c1C#N (stereo not shown) [GSK3543105, 2-((3,5-dicyano-4-ethyl-6-(4-(2-hydroxyethyl)-1,4-diazepan-1-yl)pyridin-2-yl)thio)-2-phenylacetamide]
IC50 (full-length DNMT1): 30 to 60 nM

CCc1c(C#N)c(SC(C(N)=O)c2ccccc2)nc(N2CCC(N)CC2)c1C#N (stereo not shown) [GSK3685032]
inhibition of cancer cell growth (cancer cell): inhibits cancer cell growth
tumor regression and survival compared with decitabine (Dacogen) (acute myeloid leukemia): superior to decitabine
selectivity for DNMT1 [2]: selective for DNMT1 over more than 300 protein kinases and 30 other methyltransferases

CCc1c(C#N)c(SCc2ccc(CNC(=O)CN)cc2)nc(N2CCCN(C)CC2)c1C#N [GSK3735967, 2-amino-N-(4-(((3,5-dicyano-4-ethyl-6-(4-methyl-1,4-diazepan-1-yl)pyridin-2-yl)thio)methyl)benzyl)acetamide]
IC50 (full-length DNMT1): 30 to 60 nM

CCc1c(C#N)c(N[C@@H](C(N)=O)c2ccccc2)nc(N2CCC(N)CC2)c1C#N [GSK3830334, (R)-2-((6-(4-aminopiperidin-1-yl)-3,5-dicyano-4-ethylpyridin-2-yl)amino)-2-phenylacetamide]
reduced potency relative to the ~30-60 nM compounds (full-length DNMT1; full-length DNMT1, 40-mer hemimethylated DNA duplex, radioactive SPA): 3-6 fold

CCc1c(C#N)c(SC(C(N)=O)c2ccc(C(F)(F)F)cc2)nc(N2CCC(N)CC2)c1C#N (stereo not shown) [GSK3852279, 2-((6-(4-aminopiperidin-1-yl)-3,5-dicyano-4-ethylpyridin-2-yl)thio)-2-(4-(trifluoromethyl)phenyl)acetamide trifluoroacetate]
IC50 (full-length DNMT1): 30 to 60 nM
